Measured values reported in patent publication US7648966B2, “Mannose-6-phosphonate compounds for the treatment of inflammatory diseases” (Pharmaxis Pty Limited, priority 2003, dated 2010).

What was measured:
[1] = tested on: passively transferred adjuvant-induced arthritis; assay: Passively transferred adjuvant arthritis; type: in vivo, DA rats; details: for swelling in the affected joints at the end of the treatment period: controls severe swelling
Procedure: The experiment in this Example was designed to study the effect of the agents of the present invention in vivo on a disease that requires T lymphocyte migration into a specific tissue (synovium). Male DA rats, 8 to 10 week old, were immunized with three 100 μl injections of CFA intradermally at the base of the tail. The CFA was prepared by mixing 8 mg/ml of M. butyricum (Difco Laboratories, USA) that had been ground to a fine powder using a mortar and pestle, in 85% light mineral oil (Sigma, USA) and 15% mannide monooleate (Sigma) and emulsifying this suspension, one part in one part saline. Thus, the final emulsion contained 4 mg/ml of M. butyricum. Ten days after immunization, the rats were euthanized and their spleens removed aseptically. A single cell suspension in lymphocyte culture medium with 10% FCS was prepared as described above and adjusted to a concentration of 2×10^6 cells/ml. Con A was added at a final concentration of 2 μg/ml. The cells were cultured at 37° C. in an atmosphere of 5% carbon dioxide for 72 hours. Groups of 4 or 5 DA rats, 6 to 8 weeks of age were anesthetized with diethyl ether and implanted sc on the flank with Alzet 2002 (“2 week delivery”) or Alzet 2001 (“1 week delivery”) mini-osmotic pumps (Alza Corp., Palo Alto Calif., USA). One treatment group received 1-(2,4,-diimethyl phenyl)-6-phosphono-mannoside in the one week delivery Alzet 2001 mini-osmotic pumps. The drug was delivered at a dose of 25 mg/kg/day. The control group for this experiment received identical mini-osmotic pumps containing normal saline. In a second experiment another group of DA rats received 1-(2,4,-diimethyl phenyl)-6-phosphono-mannoside in the “2 week delivery” Alzet 2002 mini-osmotic pumps. This drug was delivered at a dose of 37 mg/kg/day. Control animals for this group received saline delivered in identical mini-osmotic pumps. While the animals were recovering from anesthesia, the above cultured lymphocytes which had been harvested and washed twice in HBSS were resuspended in normal saline and injected iv (lateral tai vein) into recipient rats, each of which received 75-90×10^6 cells in 0.5 ml. After 5 to 8 days, a characteristic thickening and cutaneous hyperemia of the distal joints of the hind legs became clinically apparent in saline treated control animals. Disease severity was evaluated and graded in each group by daily measurement of the mediolateral widths of both ankle joints. The data were expressed as the mean of the change (compared with width prior to cell injection) in mediolateral ankle width expressed in millimeters (±standard error of the mean).

[2] = tested on: picryl chloride-sensitized T lymphocyte migration into the right ear pinna; assay: Inhibition of T lymphocyte migration into extralymphatic tissue (picryl chloride-painted ear pinna) in vivo; parameters: species or system Balb/c mice; details: 5 mg/mouse IV; 9-10 hours after cell infusion
From the text: The foregoing methods are recognized and well understood by those skilled in the art and the underlying principles can be found in any immunology textbook such as those cited above. Here donor animals are sensitized to a self protein (in practice, skin is the easiest tissue to use) by chemically modifying the protein(s) in this tissue thereby allowing the chemical moiety to be ‘seen’ as ‘foreign’ tissue by the immune system. This is done by reacting the skin (“painting”) with a ‘hapten’ which is usually an alkylating or arylating agent that reacts covalently with and thereby modifies protein(s) in the skin. Seven to ten days following sensitization, spleens or draining LNs are taken from the donor animals. […] Within a short time of cell transfer sensitized T cells begin to accumulate in the hapten-modified tissue, 8-24 hours later the tissue can be removed and the cell accumulation assessed. In the case of fluorescently-labeled cells, their accumulation is assessed histologically or histochemically, and in the case of radiolabeled cells, accumulation is assessed by counting radioactive decay in a suitable device. […]
B lymphocytes were depleted as described in Example 3. The enriched lymphocyte population contained approximately 85-90% T lymphocytes and <1% B cells (determined by FACS analysis). […]

Cc1ccc(O[C@H]2O[C@H](CCP(=O)(O)O)[C@@H](O)[C@H](O)[C@@H]2O)c(C)c1
difference in disease status of treated versus control animals ([1]; 25 mg/kg/day, end of one week treatment): highly statistically significant difference | swelling in the affected joints at the end of the treatment period ([1]; 25 mg/kg/day, one week delivery Alzet 2001 pump): little swelling | difference in disease status of treated versus control animals ([1]; 37 mg/kg/day, end of two week treatment): highly statistically significant difference | swelling in the affected joints at the end of the treatment period ([1]; 37 mg/kg/day, two week delivery Alzet 2002 pump): little swelling | Percent inhibition of T cell migration (right ear pinna) [2]: 56.1%
